The values that follow are results of earlier work, collected in patent US20100092463A1, “Method for treating or preventing osteoporosis by reducing follicle stimulating hormone to cyclic physiological levels in a mammalian subject” (Searete LLC, a limited liability corporation of the State …, priority 2008, published 2010).

Where a SMILES comes first, the peptide text is derived from it. [ ]: non-standard residue; d: D form. d(hArg(Et2)) = CCN=C(NCC)NCCCC[C@@H](N)C(=O)O; hArg(Et2) = CCN=C(NCC)NCCCC[C@H](N)C(=O)O; dPhe(4-Cl) = N[C@H](Cc1ccc(Cl)cc1)C(=O)O; d2Nal = N[C@H](Cc1ccc2ccccc2c1)C(=O)O; dCit = NC(=O)NCCC[C@@H](N)C(=O)O; d3Pal = N[C@H](Cc1cccnc1)C(=O)O

The conditions of the data set: most common adverse effects being nausea and headache.

For `CC(=O)N[C@H](Cc1ccc2ccccc2c1)C(=O)N[C@H](Cc1ccc(Cl)cc1)C(=O)N[C@H](Cc1cccnc1)C(=O)N[C@@H](CO)C(=O)N[C@@H](Cc1ccc(O)cc1)C(=O)N[C@H](CCCNC(N)=O)C(=O)N[C@@H](CC(C)C)C(=O)N[C@@H](CCCNC(=N)N)C(=O)N1CCC[C@H]1C(=O)N[C@H](C)C(N)=O` [cetrorelix] (Ac-[d2Nal][dPhe(4-Cl)][d3Pal]SY[dCit]LRP[dA]-NH2), the tolerability entry is given as “well tolerated”.
As to `CCN=C(NCC)NCCCC[C@H](NC(=O)[C@H](CC(C)C)NC(=O)[C@@H](CCCCNC(=NCC)NCC)NC(=O)[C@H](Cc1ccc(O)cc1)NC(=O)[C@H](CO)NC(=O)[C@@H](Cc1cccnc1)NC(=O)[C@@H](Cc1ccc(Cl)cc1)NC(=O)[C@@H](Cc1ccc2ccccc2c1)NC(C)=O)C(=O)N1CCC[C@H]1C(=O)N[C@H](C)C(N)=O` [ganirelix] (Ac-[d2Nal][dPhe(4-Cl)][d3Pal]SY[d(hArg(Et2))]L[hArg(Et2)]P[dA]-NH2), the tolerability result was “well tolerated”.
